Measurements: ChEMBL document CHEMBL3603744, “Structure activity relationship of C-2 ether substituted 1,5-naphthyridine analogs of oxabicyclooctane-linked novel bacterial topoisomerase inhibitors as broad-spectrum antibacterial agents (Part-5)” (Bioorg Med Chem Lett, 2015)
In brackets after ≈: the same amount, converted by molar mass. Activity calls are given as the source filed them. The rule behind the calls is not given here.

How the values were obtained:
Staphylococcus aureus [1] = assay: Antimicrobial activity against Staphylococcus aureus Smith by micro broth dilution or agar based method; format: functional
Streptococcus pneumoniae = assay: Antimicrobial activity against Streptococcus pneumoniae IID553 by micro broth dilution or agar based method; format: functional
Enterococcus faecium = assay: Antimicrobial activity against vancomycin-resistant Enterococcus faecium VanA by micro broth dilution or agar based method; format: functional
Escherichia coli = assay: Antimicrobial activity against Escherichia coli ATCC 25922 by micro broth dilution or agar based method; format: functional
Acinetobacter baumannii = assay: Antimicrobial activity against Acinetobacter baumannii IID876 by micro broth dilution or agar based method; format: functional
Pseudomonas aeruginosa = assay: Antimicrobial activity against Pseudomonas aeruginosa PAO1 by micro broth dilution or agar based method; format: functional
Staphylococcus aureus [2] = assay: Antimicrobial activity against methicillin-resistant Staphylococcus aureus OIT971 by micro broth dilution or agar based method; format: functional, organism-based

Compound	MIC (Staphylococcus aureus [1])	MIC (Streptococcus pneumoniae)	MIC (Enterococcus faecium)	MIC (Escherichia coli)	MIC (Acinetobacter baumannii)	MIC (Pseudomonas aeruginosa)	growth inhibition (GI) (Staphylococcus aureus [2])
O=C1COc2ccc(CNC34CCC(CCc5c(F)cnc6ccc(OCC(CO)CO)nc56)(CC3)OC4)nc2N1	0.125 µg/mL (≈ 0.22 µM)	0.5 µg/mL (≈ 0.881 µM)	4 µg/mL (≈ 7.05 µM)	16 µg/mL (≈ 28.2 µM)	8 µg/mL (≈ 14.1 µM)	32 µg/mL (≈ 56.4 µM)	Active
COC(=O)C1(COc2ccc3ncc(F)c(CCC45CCC(NCc6ccc7c(n6)NC(=O)CO7)(CC4)CO5)c3n2)CC1	0.125 µg/mL (≈ 0.211 µM)	2 µg/mL (≈ 3.38 µM)	16 µg/mL (≈ 27 µM)	16 µg/mL (≈ 27 µM)	8 µg/mL (≈ 13.5 µM)	16 µg/mL (≈ 27 µM)	Active
NC1COCC1Oc1ccc2ncc(F)c(CCC34CCC(NCc5ccc6c(n5)NC(=O)CO6)(CC3)CO4)c2n1 (stereo not given)	0.125 µg/mL (≈ 0.221 µM)	1 µg/mL (≈ 1.77 µM)	8 µg/mL (≈ 14.2 µM)	4 µg/mL (≈ 7.08 µM)	1 µg/mL (≈ 1.77 µM)	16 µg/mL (≈ 28.3 µM)	Active
NCC1(COc2ccc3ncc(F)c(CCC45CCC(NCc6ccc7c(n6)NC(=O)CO7)(CC4)CO5)c3n2)CC1	1 µg/mL (≈ 1.78 µM)	0.5 µg/mL (≈ 0.889 µM)	16 µg/mL (≈ 28.4 µM)	8 µg/mL (≈ 14.2 µM)	4 µg/mL (≈ 7.11 µM)	32 µg/mL (≈ 56.9 µM)	Active
O=C1COc2ccc(CNC34CCC(CCc5c(F)cnc6ccc(OC7CC(O)CC(O)C7)nc56)(CC3)OC4)nc2N1 (stereo not given)	0.5 µg/mL (≈ 0.842 µM)	0.5 µg/mL (≈ 0.842 µM)	16 µg/mL (≈ 27 µM)	64 µg/mL (≈ 108 µM)	32 µg/mL (≈ 53.9 µM)	64 µg/mL (≈ 108 µM)	Active
O=C1COc2ccc(CNC34CCC(CCc5c(F)cnc6ccc(OCC7(CO)CC7)nc56)(CC3)OC4)nc2N1	0.063 µg/mL (≈ 0.112 µM)	1 µg/mL (≈ 1.77 µM)	4 µg/mL (≈ 7.1 µM)	16 µg/mL (≈ 28.4 µM)	4 µg/mL (≈ 7.1 µM)	32 µg/mL (≈ 56.8 µM)	Active
O=C1COc2ccc(CNC34CCC(CCc5c(F)cnc6ccc(OC(F)F)nc56)(CC3)OC4)nc2N1	0.016 µg/mL (≈ 0.0302 µM)	0.125 µg/mL (≈ 0.236 µM)	1 µg/mL (≈ 1.89 µM)	2 µg/mL (≈ 3.78 µM)	0.5 µg/mL (≈ 0.944 µM)	4 µg/mL (≈ 7.55 µM)	Active
N[C@H]1C(=O)N[C@@H]1COc1ccc2ncc(F)c(CCC34CCC(NCc5ccc6c(n5)NC(=O)CO6)(CC3)CO4)c2n1	0.5 µg/mL (≈ 0.866 µM)	0.5 µg/mL (≈ 0.866 µM)	16 µg/mL (≈ 27.7 µM)	16 µg/mL (≈ 27.7 µM)	32 µg/mL (≈ 55.4 µM)	32 µg/mL (≈ 55.4 µM)	Active
N#CC1(COc2ccc3ncc(F)c(CCC45CCC(NCc6ccc7c(n6)NC(=O)CO7)(CC4)CO5)c3n2)CC1	0.063 µg/mL (≈ 0.113 µM)	1 µg/mL (≈ 1.79 µM)	4 µg/mL (≈ 7.16 µM)	16 µg/mL (≈ 28.6 µM)	2 µg/mL (≈ 3.58 µM)	16 µg/mL (≈ 28.6 µM)	Active
CCOC(=O)C(F)(F)CCOc1ccc2ncc(F)c(CCC34CCC(NCc5ccc6c(n5)NC(=O)CO6)(CC3)CO4)c2n1	1 µg/mL (≈ 1.59 µM)	8 µg/mL (≈ 12.7 µM)	64 µg/mL (≈ 102 µM)	64 µg/mL (≈ 102 µM)	32 µg/mL (≈ 50.8 µM)	64 µg/mL (≈ 102 µM)	Active
O=C1COc2ccc(CNC34CCC([C@@H](O)Cc5c(F)cnc6ccc(OCCO)nc56)(CC3)OC4)nc2N1	0.125 µg/mL (≈ 0.232 µM)	1 µg/mL (≈ 1.85 µM)	4 µg/mL (≈ 7.41 µM)	8 µg/mL (≈ 14.8 µM)	2 µg/mL (≈ 3.71 µM)	16 µg/mL (≈ 29.7 µM)	Active
O=C1COc2ccc(CNC34CCC(CCc5c(F)cnc6ccc(OC[C@H]7C[C@@H](O)[C@@H](O)C7)nc56)(CC3)OC4)nc2N1	0.063 µg/mL (≈ 0.106 µM)	0.5 µg/mL (≈ 0.842 µM)	4 µg/mL (≈ 6.74 µM)	8 µg/mL (≈ 13.5 µM)	8 µg/mL (≈ 13.5 µM)	8 µg/mL (≈ 13.5 µM)	Active
O=C1COc2ccc(CNC34CCC(CCc5c(F)cnc6ccc(OCc7cc(=O)c(O)c[nH]7)nc56)(CC3)OC4)nc2N1	8 µg/mL (≈ 13.3 µM)	32 µg/mL (≈ 53.1 µM)	64 µg/mL (≈ 106 µM)	16 µg/mL (≈ 26.6 µM)	16 µg/mL (≈ 26.6 µM)	16 µg/mL (≈ 26.6 µM)	Active
O=C(O)COc1ccc2ncc(F)c(CCC34CCC(NCc5ccc6c(n5)NC(=O)CO6)(CC3)CO4)c2n1	16 µg/mL (≈ 29.8 µM)	16 µg/mL (≈ 29.8 µM)	16 µg/mL (≈ 29.8 µM)	16 µg/mL (≈ 29.8 µM)	16 µg/mL (≈ 29.8 µM)	16 µg/mL (≈ 29.8 µM)	Active
O=C1COc2ccc(CNC34CCC(CCc5c(F)cnc6ccc(OC[C@@H]7C[C@@H](O)[C@@H](O)C7)nc56)(CC3)OC4)nc2N1	0.125 µg/mL (≈ 0.211 µM)	0.5 µg/mL (≈ 0.842 µM)	4 µg/mL (≈ 6.74 µM)	16 µg/mL (≈ 27 µM)	8 µg/mL (≈ 13.5 µM)	32 µg/mL (≈ 53.9 µM)	Active
COC(=O)[C@H]1C[C@@H]1COc1ccc2ncc(F)c(CCC34CCC(NCc5ccc6c(n5)NC(=O)CO6)(CC3)CO4)c2n1 (relative stereo)	0.031 µg/mL (≈ 0.0524 µM)	0.25 µg/mL (≈ 0.423 µM)	4 µg/mL (≈ 6.76 µM)	16 µg/mL (≈ 27 µM)	8 µg/mL (≈ 13.5 µM)	16 µg/mL (≈ 27 µM)	Active
N[C@@H]1CO[C@@H]1COc1ccc2ncc(F)c(CCC34CCC(NCc5ccc6c(n5)NC(=O)CO6)(CC3)CO4)c2n1	0.125 µg/mL (≈ 0.221 µM)	1 µg/mL (≈ 1.77 µM)	8 µg/mL (≈ 14.2 µM)	8 µg/mL (≈ 14.2 µM)	1 µg/mL (≈ 1.77 µM)	32 µg/mL (≈ 56.7 µM)	Active
O=C1COc2ccc(CNC34CCC(CCc5c(F)cnc6ccc(OCC(O)CO)nc56)(CC3)OC4)nc2N1 (stereo not given)	0.125 µg/mL (≈ 0.226 µM)	1 µg/mL (≈ 1.81 µM)	4 µg/mL (≈ 7.23 µM)	16 µg/mL (≈ 28.9 µM)	4 µg/mL (≈ 7.23 µM)	32 µg/mL (≈ 57.8 µM)	Active
NC(=O)C(F)(F)CCOc1ccc2ncc(F)c(CCC34CCC(NCc5ccc6c(n5)NC(=O)CO6)(CC3)CO4)c2n1	0.063 µg/mL (≈ 0.105 µM)	1 µg/mL (≈ 1.67 µM)	8 µg/mL (≈ 13.3 µM)	8 µg/mL (≈ 13.3 µM)	4 µg/mL (≈ 6.66 µM)	32 µg/mL (≈ 53.3 µM)	Active
O=C1COc2ccc(CNC34CCC(CCc5c(F)cnc6ccc(OCC7(C(=O)O)CC7)nc56)(CC3)OC4)nc2N1	0.5 µg/mL (≈ 0.866 µM)	2 µg/mL (≈ 3.46 µM)	16 µg/mL (≈ 27.7 µM)	16 µg/mL (≈ 27.7 µM)	16 µg/mL (≈ 27.7 µM)	16 µg/mL (≈ 27.7 µM)	Active
O=C1COc2ccc(CNC34CCC(CCc5c(F)cnc6ccc(OCC7(O)COC7)nc56)(CC3)OC4)nc2N1	0.125 µg/mL (≈ 0.221 µM)	0.5 µg/mL (≈ 0.884 µM)	4 µg/mL (≈ 7.07 µM)	16 µg/mL (≈ 28.3 µM)	4 µg/mL (≈ 7.07 µM)	32 µg/mL (≈ 56.6 µM)	Active
O=C1COc2ccc(CNC34CCC(CCc5c(F)cnc6ccc(OC[C@H]7C[C@@H]7C(=O)O)nc56)(CC3)OC4)nc2N1	0.25 µg/mL (≈ 0.433 µM)	0.25 µg/mL (≈ 0.433 µM)	4 µg/mL (≈ 6.93 µM)	16 µg/mL (≈ 27.7 µM)	16 µg/mL (≈ 27.7 µM)	16 µg/mL (≈ 27.7 µM)	Active
N[C@@H]1COC[C@H]1Oc1ccc2ncc(F)c(CCC34CCC(NCc5ccc6c(n5)NC(=O)CO6)(CC3)CO4)c2n1	0.125 µg/mL (≈ 0.221 µM)	0.5 µg/mL (≈ 0.886 µM)	8 µg/mL (≈ 14.2 µM)	4 µg/mL (≈ 7.08 µM)	1 µg/mL (≈ 1.77 µM)	16 µg/mL (≈ 28.3 µM)	Active
O=C(O)CCCCOc1ccc2ncc(F)c(CCC34CCC(NCc5ccc6c(n5)NC(=O)CO6)(CC3)CO4)c2n1	0.063 µg/mL (≈ 0.109 µM)	0.25 µg/mL (≈ 0.431 µM)	2 µg/mL (≈ 3.45 µM)	16 µg/mL (≈ 27.6 µM)	16 µg/mL (≈ 27.6 µM)	16 µg/mL (≈ 27.6 µM)	Active
CC(C)CCOc1ccc2ncc(F)c(CCC34CCC(NCc5ccc6c(n5)NC(=O)CO6)(CC3)CO4)c2n1	0.125 µg/mL (≈ 0.227 µM)	1 µg/mL (≈ 1.82 µM)	8 µg/mL (≈ 14.6 µM)	16 µg/mL (≈ 29.1 µM)	16 µg/mL (≈ 29.1 µM)	16 µg/mL (≈ 29.1 µM)	Active
